The source of these data is US11840535B2, “Alkynyl(hetero)aromatic compound for inhibiting protein kinase activity” (Shenzhen TargetRx, Inc., priority 2018, dated 2023).

The test system of data set [1] is Ba/F3 Bcr-Abl T315I cells. The data set can be described thus: Cell proliferation analysis, Ba/F3 Bcr-Abl T315I. It is filed as cell-based. The method, then: (§1) The inhibitory effect of the example compounds on Ba/F3, Ba/F3 Bcr-Abl T315I cell activity was determined.
(§2) Materials and reagents: RPMI-1640 medium (GIBCO, Catalog No. A10491-01), fetal bovine serum (GIBCO, Catalog No. 10099141), antibiotics (Penicillin-Streptomycin), IL-3 (PeproTech), promycin; cell lines: Ba/F3, Ba/F3 Bcr-Abl T315I (Purchased from American type culture collection, ATCC), live cell detection kit […] (Promega, Catalog No. G7572), 96-well black wall transparent flat bottom cell culture plate (Corning, Catalog No. 3340).
(§3) Test method: 1. Preparation of cell plate: Ba/F3, Ba/F3 Bcr-Abl T315I cells were respectively seeded in 96-well plates, and 8 ng/ml IL-3 was added to the Ba/F3 cells, and the cell plates were placed in a carbon dioxide incubator and cultured overnight. 2. The test compounds were dissolved in DMSO, 9 compound concentrations were made with a 3.16-fold gradient dilution in triplicate. 3. Treatment of the cells with compounds: The compounds were transferred to the cell plate with a starting concentration of 10 μM. The cell plate was placed in a carbon dioxide incubator for 3 days. 4. Detection: CellTiter-Glo agent was added to the cell plate, and incubated at room temperature for 30 minutes to stabilize the luminous signal. PerkinElmer Envision multi-label analyzer was used for reading, wherein A represents […], B represents IC50 is 10-20 nM, C represents IC50 is 20-50 nM, D represents IC50 is 50-1000 nM, E represents IC50>1000 nM.

Another data set deals with ABL^T315I (Homo sapiens (Human), UniProt P00519, T315I). The data set is described as follows: Biochemical kinase analysis, ABL T315I. How it is done:
(§4) Reagents and materials: ABL (ThermoFisher, Cat. No PV3585), ABL^T315I (Thermo Fisher, Cat. No. PR7429B), ATP (Sigma, Cat. No. A7699-1G), DMSO (Sigma, Cat. No. D2650), 96-well plate (Corning, Cat. No. 3365), 384-well plate (Greiner, Cat. No. 784076), buffer solution (Thermo Fisher, Cat. No. PR4876B).
(§5) Compound formulation: The test compounds were dissolved in DMSO to prepare a 20 mM stock solution. Before use, the compounds were diluted in DMSO to 0.1 mM, and diluted into 11 concentrations with a 3-fold gradient. When addition, diluentions of 4-fold final concentration were then made with buffer solution.
(§6) Kinase assay method: After preparing the buffer, the enzyme was mixed with pre-formulated and diluted compounds of different concentrations in duplicate for each concentration, and placed at room temperature for 30 minutes. The corresponding substrate and ATP were added thereto, and reacted at room temperature for 60 minutes (both a negative and a positive control were set). After the reaction, antibody was added for detection, Envision detection was carried out after 60 minutes incubation at room temperature, and data was collected. Data analysis and fitting were made according to XLfit5 software, wherein, A represents IC50≤5 nM, B represents IC50 is 5-50 nM, C represents IC50 is 50-100 nM, D represents IC50>100 nM.

The next data set has as its target ABL (Homo sapiens (Human), UniProt P00519). The data set is described as follows: Biochemical kinase analysis, ABL. The method, then: as §4, §5, §6
Data set [2] can be described thus: Metabolic stability evaluation, human liver microsome assay. As to conditions: pH 7.4, human liver microsomes 0.5 mg/mL, compound 1 μM, 37° C. It is filed as in vitro ADME. The method, then:
Microsome assay: human liver microsomes: 0.5 mg/mL, Xenotech; coenzyme (NADPH/NADH): 1 mM, Sigma Life Science; magnesium chloride: 5 mM, 100 mM phosphate buffer (pH is 7.4).
Preparation of stock solution: Powder of the example compounds and the reference compound were accurately weighed, and dissolved to 5 mM with DMSO, respectively.
Preparation of phosphate buffer (100 mM, pH7.4): Pre-formulated 150 mL 0.5 M potassium dihydrogen phosphate and 700 mL 0.5 M dipotassium hydrogen phosphate were mixed, then the pH of the mixture was adjusted to 7.4 with 0.5 M dipotassium hydrogen phosphate. Before use, 5-fold dilution was made with ultra-pure water, and magnesium chloride was added to afford phosphate buffer (100 mM), which containing 100 mM potassium phosphate, 3.3 mM magnesium chloride, and pH is 7.4.
NADPH regeneration system solution (containing 6.5 mM NADP, 16.5 mM G-6-P, 3 U/mL G-6-P D, 3.3 mM magnesium chloride) was prepared and placed on wet ice before use.
Preparation of stop solution: Acetonitrile solution containing 50 ng/mL propranolol hydrochloride and 200 ng/mL tolbutamide (internal standard). 25057.5 μL phosphate buffer (pH 7.4) was taken into a 50 mL centrifuge tube, and 812.5 μL human liver microsome was added respectively, mixed well to afford liver microsome diluention with a protein concentration of 0.625 mg/mL.
Incubation of the sample: The stock solutions of the corresponding compounds were diluted to 0.25 mM with an aqueous solution containing 70% acetonitrile as working solutions for use. 398 μL of human liver microsome diluention was taken and added to a 96-well incubation plate (N=2), respectively, and 2 μL of 0.25 mM working solutions were then added respectively, and mixed well.
Determination of metabolic stability: 300 μL of pre-chilled stop solution was added to each well of a 96-well deep well plate and the plate was placed on ice as a stop plate. The 96-well incubation plate and NADPH regeneration system were placed in a 37° C. water bath, shook at 100 rpm, and pre-incubated for 5 min. 80 μL of incubation solution was taken from each well of the incubation plate and added to the stop plate, mixed well, and 20 μL of NADPH regeneration system solution was supplemented, the resulted solution was considered as sample at 0 min. Then 80 μL of NADPH regeneration system solution was added to each well of the incubation plate to start the reaction and started timing. The reaction concentration of the corresponding compound is 1 μM, and the protein concentration is 0.5 mg/mL. 100 μL reaction solution was taken at 10, 30, 90 min of reaction, respectively, and added into stop plate, the reaction was stopped with 3 min vortex. The stop plate was centrifuged at 5000×g, 4° C. for 10 min. 100 μL of supernatant was taken to a 96-well plate where 100 μL of distilled water was added in advance, mixed well, sample analysis was carried out by LC-MS/MS.
Data analysis: LC-MS/MS system was used to detect peak area of corresponding compound and internal standard, peak area ratio of compound to internal standard was calculated. The slope was measured by plotting the natural logarithm of the remaining percentage of the compound versus time, and t1/2 and CLint were calculated according to the following formula, wherein V/M means 1/protein concentration.

For another data set, the system named is Ba/F3 parental cells. The data set can be described thus: Cell proliferation analysis, Ba/F3 parental. Type of data set: cell-based. Conditions: Mus musculus, BaF3, 72 h; 8 ng/ml IL-3, 3 days, CellTiter-Glo. How it is done: as §1, §2, §3

Take `Cc1ccc(NC(=O)c2ccc(CN3CCN(C)CC3)c(C(F)(F)F)c2)cc1C#Cc1cn([C@H]2CC[C@H](O)CC2)c2ncnc(N)c12` [Example 25, N-(3-((4-amino-7-((1r,4r)-4-hydroxycyclohexyl)-7H-pyrrolo[2,3-d]pyrimidin-5-yl)ethynyl)-4-methylphenyl)-4-((4-methylpiperazin-1-yl)methyl)-3-(trifluoromethyl)benzamide]: the IC50 was 20 to 50 nM in data set [1] (Mus musculus, BaF3, 72 h, 3 days, CellTiter-Glo); ≤ 5 nM on ABL^T315I; ≤ 5 nM on ABL; > 1000 nM in the data set with Ba/F3 parental cells. For the same molecule, the “Selectivity [Ba/F3 (parental/Bcr-Abl ^T315I)]” value in data set [1] (ratio of Ba/F3 parental to Ba/F3 Bcr-Abl T315I) is on record as 0~50. For the same molecule, the microsomal CLint at 1 μM in data set [2] (read-out: HLM Clint) was found to be 7.6 µL/min/mg. The half-life at 1 μM in data set [2] (read-out: HLM T1/2) worked out at 182 min.
